Tests used:
[1] = system: human origin B-cell non-Hodgkin's lymphoma Z-138 cell strain; assay: Subcutaneous Z-138 xenograft in mice; type: in vivo; settings: subcutaneous xenograft in female NOD/SCID mice
Z-138 cells = assay: Z-138 cell growth inhibition test (CellTiter-Glo, 5 days); type: cell-based; settings: Homo sapiens, incubated 5 days (120 h)
Experimental: The cells were routinely subcultured. After approximately two passages, well-growing cell strains were selected for plating.
• I. The suspension was removed from the incubator, transferred into a 50 mL centrifuge tube, and then centrifuged at 800-1000 rpm for 3-5 min, and the supernatant was discarded. An appropriate volume of culture medium was added to the centrifuge tube, and the cells were gently pipetted to ensure a uniform suspension. Cell counting was performed using the Vi-Cell XR cell counter. • II. Based on the measured cell density, the cell suspension was adjusted to an appropriate concentration. • III. The cell suspension was added to a 384-well plate at a volume of 40 µL/well, with 700 cells/well. For blank control wells, an equal volume of cell-free culture medium was added instead.
• I. The compound was dissolved in 100% DMSO to prepare a 10 mM stock solution. • II. […]
The assay was performed according to the instructions of the Promega CellTiter-Glo luminescent cell viability assay kit (Promega-G7573): • I. The CellTiter-Glo buffer was thawed and let stand at room temperature. • II. […] The luminescence signals were detected on 2104 EnVision plate reader. […]
The dose-response inhibition curve was plotted using XLFit, and IC50 values were calculated using the four-parameter logistic model: [fit = (A + ((B - A)/(1 + ((C/x) ^ D))))].

PRMT5 = molecular target: T1, PRMT5 (Homo sapiens, UniProt O14744); assay: PRMT5 enzymatic activity inhibition test ([3H]-SAM FlashPlate); type: biochemical; settings: for IC50: 5 nM PRMT5, 0.3 µM [3H]-SAM, 100 nM polypeptide substrate
T1 construct: purchased Active Motif 31921
T1 sequence (O14744 whole entry): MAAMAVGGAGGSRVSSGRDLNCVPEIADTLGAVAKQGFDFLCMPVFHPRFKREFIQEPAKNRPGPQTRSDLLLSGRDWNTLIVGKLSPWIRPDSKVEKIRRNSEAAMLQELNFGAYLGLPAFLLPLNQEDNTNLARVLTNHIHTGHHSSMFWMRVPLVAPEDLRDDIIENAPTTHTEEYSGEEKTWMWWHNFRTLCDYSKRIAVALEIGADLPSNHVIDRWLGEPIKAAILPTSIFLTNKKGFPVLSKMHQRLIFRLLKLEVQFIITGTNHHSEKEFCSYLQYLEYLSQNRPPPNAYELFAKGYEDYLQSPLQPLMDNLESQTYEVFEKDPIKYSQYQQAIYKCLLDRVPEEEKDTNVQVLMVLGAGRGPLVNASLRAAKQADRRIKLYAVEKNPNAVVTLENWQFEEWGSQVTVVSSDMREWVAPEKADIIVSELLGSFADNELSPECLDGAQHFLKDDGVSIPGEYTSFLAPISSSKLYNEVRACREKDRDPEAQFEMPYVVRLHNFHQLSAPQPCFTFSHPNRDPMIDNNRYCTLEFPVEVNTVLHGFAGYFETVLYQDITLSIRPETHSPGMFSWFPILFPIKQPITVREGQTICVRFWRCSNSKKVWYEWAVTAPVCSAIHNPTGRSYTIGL
T1 sequence (Q9BQA1 whole entry partner): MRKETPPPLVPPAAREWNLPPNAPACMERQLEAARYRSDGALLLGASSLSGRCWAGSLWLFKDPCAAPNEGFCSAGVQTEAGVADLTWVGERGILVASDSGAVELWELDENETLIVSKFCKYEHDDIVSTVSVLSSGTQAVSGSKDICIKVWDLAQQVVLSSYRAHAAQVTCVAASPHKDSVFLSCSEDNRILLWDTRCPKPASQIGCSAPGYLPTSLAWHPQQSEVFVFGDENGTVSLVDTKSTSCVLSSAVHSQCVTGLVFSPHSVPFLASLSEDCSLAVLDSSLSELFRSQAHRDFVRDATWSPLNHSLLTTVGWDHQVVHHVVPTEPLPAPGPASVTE
Experimental: A 1× enzyme reaction buffer was prepared using 10 mM Tris 8.0 (Sigma, Cat. No. T2694-1L), 0.01% Tween-20 (Sigma, Cat. No. P2287-100ML), and 1 mM DTT (Sigma, Cat. No. D0632-10G). […] Subsequently, the concentration (X) and corresponding inhibition rate (Inh%) (Y) were input into EXCEL. The XLFit plug-in was then used to fit the data using the built-in four-parameter logistic equation: Y = Bottom + (Top - Bottom)/(1 + (IC50/X) […]). The IC50 (half-maximal inhibitory concentration) value for each compound was then calculated.

| IC50 (PRMT5) [nM] | inhibitory activity against the enzymatic activity (PRMT5; in vitro, statement in words) | Compound | tumor inhibition effects [1] | IC50 (Z-138 cells) [nM] |
| --- | --- | --- | --- | --- |
| 6.4 | strong inhibitory effects | CC(C)Oc1nc(NC2CCN(C(=O)c3ccccc3)CC2)cc(C(=O)N2CC[C@@H](N3CCc4ccccc4C3)[C@H](O)C2)n1 [Example 1, (6-((1-benzoylpiperidin-4-yl)amino)-2-isopropoxypyrimidin-4-yl)((3R,4R)-4-(3,4-dihydroisoquinolin-2(1H)-yl)-3-hydroxypiperidin-1-yl)methanone] | excellent tumor inhibition effects | 46.6 |
| 115 |  | CC(=O)N1CCC(Nc2cc(C(=O)N3CCC(N4CCc5ccccc5C4)CC3)nc(C)n2)CC1 [reference compound, reference compound] |  | 2710 |
